Tests used:
[1] = tested on: Arabidopsis thaliana; test: Root growth-promoting activity test (Example 9); assay type: in vivo; conditions: main root length vs control section, 22° C., 10 days
Method: Enshi standard medium having the following composition (see Table 10) was prepared. To cluster tubes was dispensed each 4 μl of a solution of a chemical substance in DMSO to a final concentration of 0.001 ppm to 10 ppm, and then, was dispensed each 600 μl of the sterilized Enshi standard medium. Then the resulting solution was well mixed. In each of the cluster tubes, 10-20 seeds of Arabidopsis thaliana were sown, and cultured at 22° C. for 10 days in the light. Then, the length of main roots (average main roots) generated from the seeds of Arabidopsis thaliana was measured. An average of eight repeats was determined, and a root growth rate was determined according to the following equation.
Root growth rate (%)=(Average main root length in chemical substance-treated section)/(Average main root length in control section)×100

[2] = molecular target: T1, cytokinin receptor CRE1 (Arabidopsis thaliana, UniProt Q9C5U0, S567G/T1018A); test: Inhibition of intracellular signaling from plant-derived cytokinin receptor, growth of transformed yeast cell TM182-CRE1; assay type: cell-based; conditions: trans-zeatin 0.6 ppm, chemical substance 2 ppm; for Relative growth rate (%) in test section of test substance to control section, Transformed cell TM182-CRE1: 30° C., 24 hours, turbidity OD 600; for Activity (%) of test substance for inhibiting intracellular signaling from plant-derived cytokinin receptor of cell: = 100 − relative growth rate of TM182-CRE1
T1 construct: expressed in transfected cells; host or cells: Saccharomyces cerevisiae TM182 (sln1Δ) transformed with p415CYC-CRE1
Method: (§1) The transformed cell TM182-CRE1 and the transformed cell TM182-p415CYC1 obtained in Example 6 were each inoculated in 10 ml of a DOLU+Gal medium, and preincubated at 30° C. for 18 hours to obtain a preincubation liquid for each of the transformed cells. The preincubation liquid was diluted with a DOLU+Glu medium for the transformed cell TM182-CRE1 or with a DOLU+Gal medium for the transformed cell TM182-p415CYC1 until OD600=0.1 was reached, to obtain a preincubation dilution for each of the transformed cells.
(§2) To each well of a 96-well plate was added 1 μl of a 200 ppm solution of a test substance in dimethyl sulfoxide (DMSO) to prepare an Assay plate. At the same time, as controls, only 1 μl of DMSO was added to a part of wells. An assay plate for the transformed cell TM182-CRE1 and an assay plate for the transformed cell TM182-p415CYC1 were prepared.
(§3) A 10,000 ppm solution of trans-zeatin (cytokinin) in DMSO was 50-fold diluted with a DOLU+Gul medium to 200 ppm. The 200 ppm trans-zeatin solution was added in an amount of 3/1,000 volume to each of the above-described preincubation dilution to prepare each preincubation dilution containing trans-zeatin at 0.6 ppm. The 0.6 ppm preincubation dilution was added in an amount of 100 μl to each wells of the assay plate for each transformed cell. The plates were incubated at 30° C. for 24 hours. Then, turbidity (OD 600) of each well was measured by using a plate reader. The activity of the test substance for inhibiting intracellular signaling from a plant-derived cytokinin receptor of a cell was tested by comparing the measured turbidity with the turbidity of the control well.
(§4) (Relative growth rate in test section to control section) [%]=[(Turbidity in test section)−(Turbidity in blank)]/[(Turbidity in control section)−(Turbidity in blank)]×100 (Activity of inhibiting intracellular signaling from plant-derived cytokinin receptor of cell) [%]=100−(Relative growth rate in test section to control section)
(§5) In all cases, the existing concentration of trans-zeatin was adjusted to 0.6 ppm and the existing concentration of a chemical substance was adjusted to 2 ppm.
(§6) In all cases, the existing concentration of trans-zeatin was adjusted to 0.6 ppm and the existing concentration of a chemical substance was adjusted to 2 […].

[3] = tested on: transformed cell TM182-p415CYC1; test: Control growth test with transformed yeast cell TM182-p415CYC1 (toxicity to yeast); assay type: cell-based; conditions: trans-zeatin 0.6 ppm; chemical substance 2 ppm; 30° C., 24 hours; turbidity OD 600
Method: as §1, §2, §3, §4, §5, §6

[4] = test final concentration 5 ppm (concentration with highest root growth rate)
[5] = test final concentration 10 ppm (concentration with highest root growth rate)
[6] = test final concentration 0.625 ppm (concentration with highest root growth rate)
[7] = test final concentration 0.156 ppm (concentration with highest root growth rate)
[8] = test final concentration 2.5 ppm (concentration with highest root growth rate)

T1 sequence (Q9C5U0 24-1080 S567G/T1018A): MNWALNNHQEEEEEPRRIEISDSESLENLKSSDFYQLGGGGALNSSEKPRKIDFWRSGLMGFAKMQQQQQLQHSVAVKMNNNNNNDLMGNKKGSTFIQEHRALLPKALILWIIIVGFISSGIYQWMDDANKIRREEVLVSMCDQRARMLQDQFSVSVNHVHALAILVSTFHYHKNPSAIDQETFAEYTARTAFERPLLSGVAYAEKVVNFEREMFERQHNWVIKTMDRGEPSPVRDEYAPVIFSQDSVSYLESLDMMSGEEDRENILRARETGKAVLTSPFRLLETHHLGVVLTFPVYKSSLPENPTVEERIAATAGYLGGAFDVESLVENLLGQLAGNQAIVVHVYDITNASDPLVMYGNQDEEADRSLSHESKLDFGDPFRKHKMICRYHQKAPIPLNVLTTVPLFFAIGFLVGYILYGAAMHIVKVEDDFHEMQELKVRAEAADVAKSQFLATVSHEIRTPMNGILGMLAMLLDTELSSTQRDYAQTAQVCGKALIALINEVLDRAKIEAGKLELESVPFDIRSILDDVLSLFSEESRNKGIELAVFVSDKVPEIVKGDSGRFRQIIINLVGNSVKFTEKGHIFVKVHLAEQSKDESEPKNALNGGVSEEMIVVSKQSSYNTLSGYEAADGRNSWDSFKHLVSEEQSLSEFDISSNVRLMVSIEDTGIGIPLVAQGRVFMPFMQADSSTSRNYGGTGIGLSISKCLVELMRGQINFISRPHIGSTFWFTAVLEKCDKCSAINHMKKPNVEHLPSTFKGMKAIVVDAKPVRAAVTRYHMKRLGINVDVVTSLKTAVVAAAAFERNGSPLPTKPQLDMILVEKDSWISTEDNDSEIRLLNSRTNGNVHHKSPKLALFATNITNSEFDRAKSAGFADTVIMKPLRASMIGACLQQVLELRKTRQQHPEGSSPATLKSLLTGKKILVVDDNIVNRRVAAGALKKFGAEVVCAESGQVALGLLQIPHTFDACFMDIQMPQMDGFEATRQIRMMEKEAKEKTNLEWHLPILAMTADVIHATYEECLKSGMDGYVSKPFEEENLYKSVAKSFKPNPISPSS

Row | Compound | Relative growth rate (%) in test section of test substance to control section, Transformed cell TM182-CRE1 [2] [%] | Activity (%) of test substance for inhibiting intracellular signaling from plant-derived cytokinin receptor of cell [2] [%] | Relative growth rate (%) in test section of test substance to control section, Transformed cell TM182-p415CYC1 [3] [%] | other results
1 | Clc1nc(-c2ccccc2)c2c(Cl)cccc2n1 [Ia1-1] |  |  |  | Root growth-promoting activity (root growth rate) [1, 4]: 133.3%
2 | Fc1ccc2nc(Cl)nc(-c3ccccc3)c2c1 [Ia1-2] |  |  |  | Root growth-promoting activity (root growth rate) [1, 5]: 139.7%
3 | FC(F)(F)c1ccc2nc(Cl)nc(-c3ccccc3)c2c1 [Ia1-6] |  |  |  | Root growth-promoting activity (root growth rate) [1, 6]: 126.9%
4 | O=[N+]([O-])c1ccc2nc(Cl)nc(-c3ccccc3)c2c1 [Ia1-7] | 1.2 | 98.8 | 78.8 | 
5 | Clc1cccc(-c2nc(Cl)nc3ccc(Cl)cc23)c1 [Ia1-14] |  |  |  | Root growth-promoting activity (root growth rate) [1, 7]: 129.3%
6 | O=Cc1nc(-c2ccccc2Cl)c2cc(Br)ccc2n1 [Ib4-1] | 8.7 | 91.3 | 110.9 | 
7 | OCCCNc1nc(-c2ccccc2)c2cc(F)ccc2n1 [Ic2-1] | 2.8 | 97.2 | 124.6 | Root growth-promoting activity (root growth rate) [1, 8]: 127.4%
8 | CN(CCO)c1nc(-c2ccccc2)c2cc(Cl)ccc2n1 [Ic3-6] | 2.8 | 97.2 | 114.6 | Root growth-promoting activity (root growth rate) [1, 6]: 122.4%
9 | COCCN(C)c1nc(-c2ccccc2)c2cc(Cl)ccc2n1 [Ic3-9] | 1.5 | 98.5 | 122.0 | 
10 | Nc1nc(-c2ccccc2)c2cc(Cl)ccc2n1 [Ic3-19] | 2.4 | 97.6 | 102.7 | Root growth-promoting activity (root growth rate) ([1]; test final concentration 1.25 ppm (concentration with highest root growth rate)): 155.6%
11 | NNc1nc(-c2ccccc2)c2cc(Cl)ccc2n1 [Ic3-20] | 5.0 | 95.0 | 86.5 | Root growth-promoting activity (root growth rate) [1, 5]: 137.8%
12 | CN(C)CCNc1nc(-c2ccccc2)c2cc(Cl)ccc2n1 [Ic3-21] | 5.0 | 95.0 | 121.6 | Root growth-promoting activity (root growth rate) [1, 8]: 131.7%
13 | NCCCCNc1nc(-c2ccccc2)c2cc(Cl)ccc2n1 [Ic3-22] | 4.9 | 95.1 | 110.6 | Root growth-promoting activity (root growth rate) [1, 7]: 129.3%
14 | CNc1nc(-c2ccccc2)c2cc(Cl)ccc2n1 [Ic3-23] | 4.1 | 95.9 | 108.1 | Root growth-promoting activity (root growth rate) [1, 5]: 150.0%
15 | CN(C)c1nc(-c2ccccc2)c2cc(Cl)ccc2n1 [Ic3-25] | 6.0 | 94.0 | 122.0 | Root growth-promoting activity (root growth rate) [1, 5]: 140.0%
16 | N#CCNc1nc(-c2ccccc2)c2cc(Cl)ccc2n1 [Ic3-26] | 5.3 | 94.7 | 110.7 | Root growth-promoting activity (root growth rate) [1, 4]: 136.4%
17 | C#CCNc1nc(-c2ccccc2)c2cc(Cl)ccc2n1 [Ic3-30] | 2.2 | 97.8 | 108.9 | 
18 | NC(=O)CNc1nc(-c2ccccc2)c2cc(Cl)ccc2n1 [Ic3-31] |  |  |  | Root growth-promoting activity (root growth rate) [1, 5]: 142.2%
19 | N#CCCNc1nc(-c2ccccc2)c2cc(Cl)ccc2n1 [Ic3-34] | 0.2 | 99.8 | 118.5 | 
20 | N=C(N)Nc1nc(-c2ccccc2)c2cc(Cl)ccc2n1 [Ic3-36] |  |  |  | Root growth-promoting activity (root growth rate) [1, 8]: 123.1%
21 | CCOCCNc1nc(-c2ccccc2)c2cc(Cl)ccc2n1 [Ic3-45] | 0.8 | 99.2 | 98.7 | 
22 | OCCNc1nc(-c2ccccc2)c2cc(Br)ccc2n1 [Ic4-1] | 4.6 | 95.4 | 95.0 | 
23 | OCCCNc1nc(-c2ccccc2)c2cc(Br)ccc2n1 [Ic4-2] | 0.9 | 99.1 | 109.3 | 
24 | COc1ccc2nc(NCCCO)nc(-c3ccccc3)c2c1 [Ic8-1] |  |  |  | Root growth-promoting activity (root growth rate) [1, 5]: 162.1%
25 | NCCOc1nc(-c2ccccc2)c2cc(Cl)ccc2n1 [Id3-1, 2-(2-aminoethoxy)-6-chloro-4-phenylquinazotine] | 2.1 | 97.9 | 112.5 | 
26 | NCCSc1nc(-c2ccccc2)c2cc(Cl)ccc2n1 [Ie3-2] |  |  |  | Root growth-promoting activity (root growth rate) [1, 5]: 147.6%

Source: patent US8722580B2, “Agent for inhibiting cytokinin signaling” (Sumitomo Chemical Company, Limited, priority 2006, dated 2014)
